Reference: paper PMC6855212, “Antibacterial activity of synthetic 1,3‐bis(aryloxy)propan‐2‐amines against Gram‐positive bacteria” (MicrobiologyOpen, 2019)
In brackets after ≈: the same amount, converted by molar mass. Several values for one entry are separate records, joined by “and”; a condition that tells them apart may be missing. Equal entries are not always repeated. Where two headings read alike, the source gives them in different places.

Key:
[1] = Cytotoxicity, MTT reduction assay; format: cell-based; conditions: African green monkey, 48 hr
Experimental: The cytotoxicity of active compounds to mammalian cells was assessed using the MTT reduction assay (Mosmann, 1983). Vero and BSC‐40 cells were seeded in 96‐well plates (8 × 10^4 cells per well) and incubated at 37°C and 5% CO2 atmosphere. After 24 hr of incubation, 200 μL of fresh medium containing a serial dilution of compounds (10–1.25 μg/ml) were added to the plates. After 48 hr of incubation in the same conditions, 100 μL of MTT solution in MEM or DMEM (5 mg/ml) was added to each well and incubated for 3 hr at 37°C and 5% CO2 atmosphere. The medium was removed and 100 μL of DMSO was used to solubilize formazan crystals. Absorbance at 570 nm of each well was read using a spectrophotometer (VersaMax, Molecular Devices).

[2] = tested on: Staphylococcus aureus ATCC 29212; assay: MIC, broth microdilution; format: cell-based; conditions: for MIC: Staphylococcus aureus, ATCC29212; for Antibacterial activity in initial screening, S. aureus: concentration of 10 μg/ml
Experimental: (§1) The antibacterial activity of the compounds was evaluated using the broth microdilution method in 96‐well microplates according to the Clinical and Laboratory Standards Institute protocol (CLSI, 2017). First, synthetic compounds were diluted in Mueller Hinton broth (MHB; Oxoid, Thermo Scientific, UK) to concentrations ranging from 20 to 2.5 μg/ml. The same volume of a bacterial suspension containing 10^5 CFU/ml was added to each of the previous solutions, resulting in final compound concentrations from 10 to 1.25 μg/ml. […] All conditions were tested in triplicate and the results shown are representative of three independent assays.

[3] = tested on: MRSA Strain 6613; assay: MIC, broth microdilution; format: cell-based; conditions: Staphylococcus aureus, read-out: MIC MRSA Strain 6613
Experimental: as §1

[4] = tested on: MRSA Strain 5749; assay: MIC, broth microdilution; format: cell-based; conditions: Staphylococcus aureus, read-out: MIC MRSA Strain 5749
Experimental: as §1

[5] = tested on: Streptococcus pyogenes ATCC 19615; assay: MIC, broth microdilution; format: cell-based; conditions: for MIC: Streptococcus pyogenes, ATCC19615; for Antibacterial activity in initial screening, S. pyogenes: concentration of 10 μg/ml
Experimental: as §1

[6] = tested on: MRSA Strain 6154; assay: MIC, broth microdilution; format: cell-based; conditions: Staphylococcus aureus, read-out: MIC MRSA Strain 6154
Experimental: as §1

[7] = tested on: MRSA Strain 5912; assay: MIC, broth microdilution; format: cell-based; conditions: Staphylococcus aureus, read-out: MIC MRSA Strain 5912
Experimental: as §1

[8] = tested on: MRSA strains; assay: MBC, MRSA strains taken together; format: cell-based, Staphylococcus aureus; conditions: concentrations tested (up to 10 μg/ml)
Experimental: (§2) After incubation at 35°C for 24 hr, the colonies were counted and the percentage of inhibition was calculated. MBC is defined as the lowest compound's concentration that inhibits at least 99.9% of the bacterial cell count compared to nontreated viability control (Clinical and Laboratory Standards Institute, 1999).

[9] = tested on: MRSA strains; assay: MIC, broth microdilution, MRSA strains taken together; format: cell-based; conditions: Staphylococcus aureus; over the six MRSA strains (CPD18: four out of six); read-out: MIC against MRSA strains
Experimental: as §1

[10] = tested on: Gram‐positive bacteria (E. faecalis, S. aureus and S. pyogenes); assay: MIC, broth microdilution, Gram‐positive bacteria taken together; format: cell-based; conditions: Staphylococcus aureus; over different bacterial strains, including MRSA where stated; read-out: MIC against Gram‐positive bacteria, summary
Experimental: as §1

[11] = tested on: S. pyogenes ATCC 19615; assay: MBC, plating of wells without growth; format: cell-based; conditions: Streptococcus pyogenes, ATCC19615; at least 99.9% inhibition of cell count
Experimental: as §2

[12] = tested on: MRSA Strain 6613; assay: MBC, plating of wells without growth; format: cell-based; conditions: Staphylococcus aureus
Experimental: as §2

[13] = tested on: S. aureus ATCC 29212; assay: MBC, plating of wells without growth; format: cell-based; conditions: Staphylococcus aureus, ATCC29212; at least 99.9% inhibition of cell count
Experimental: as §2

[14] = tested on: MRSA Strain 5749; assay: MBC, plating of wells without growth; format: cell-based; conditions: Staphylococcus aureus
Experimental: as §2

[15] = tested on: MRSA Strain 6154; assay: MBC, plating of wells without growth; format: cell-based; conditions: Staphylococcus aureus
Experimental: as §2

[16] = tested on: MRSA Strain 5912; assay: MBC, plating of wells without growth; format: cell-based; conditions: Staphylococcus aureus
Experimental: as §2

[17] = tested on: MRSA Strain 6100; assay: MIC, broth microdilution; format: cell-based; conditions: Staphylococcus aureus, read-out: MIC MRSA Strain 6100
Experimental: as §1

[18] = tested on: MRSA ATCC 43300; assay: MIC, broth microdilution; format: cell-based; conditions: Staphylococcus aureus, read-out: MIC MRSA ATCC 43300
Experimental: as §1

[19] = tested on: Enterococcus faecalis ATCC 29213; assay: MIC, broth microdilution; format: cell-based; conditions: for MIC: Enterococcus faecalis, ATCC29213; for Antibacterial activity in initial screening, E. faecalis: concentration of 10 μg/ml
Experimental: as §1

[20] = tested on: MRSA Strain 6100; assay: MBC, plating of wells without growth; format: cell-based; conditions: Staphylococcus aureus
Experimental: as §2

[21] = tested on: MRSA ATCC 43300; assay: MBC, plating of wells without growth; format: cell-based; conditions: Staphylococcus aureus
Experimental: as §2

[22] = tested on: E. faecalis ATCC 29213; assay: MBC, plating of wells without growth; format: cell-based; conditions: Enterococcus faecalis, ATCC29213; at least 99.9% inhibition of cell count
Experimental: as §2

[23] = tested on: S. aureus; design: method as in CLSI, 2017; conditions: antimicrobials in clinical use; ref CLSI, 2017; cited from earlier work
[24] = tested on: E. faecalis; design: method as in CLSI, 2017; conditions: antimicrobials in clinical use; ref CLSI, 2017; cited from earlier work
[25] = tested on: MRSA; design: method as in Baltch, Ritz, Bopp, Michelsen, & Smith, 2007; conditions: antimicrobials used in the clinic; ref Baltch, Ritz, Bopp, Michelsen, & Smith, 2007; cited from earlier work
[26] = BSC-40 cells, BSC‐40, MTT, read-out: CC50
[27] = BSC-40 cells, BSC‐40, MTT, read-out: CC50 ± SD
[28] = Vero cells, MTT, read-out: CC50
[29] = Vero cells, MTT, read-out: CC50 ± SD
[30] = 24 hr, 35°C, read-out: MIC Staphylococcus aureus ATCC 29212
[31] = read-out: MIC against S. aureus
[32] = 24 hr, 35°C, read-out: MIC Streptococcus pyogenes ATCC 19615
[33] = read-out: MIC against S. pyogenes
[34] = clinical strain, — = no activity up to 10 μg/ml

SMILES	CC50 at 48 h [1, 26]	CC50 at 48 h [1, 27]	CC50 at 48 h [1, 29]	MIC [2, 30]	MIC [2, 31]	Antibacterial activity in initial screening, S. aureus [2]	MIC ([3]; clinical strain)	MIC ([4]; clinical strain)	MIC [5, 32]	MIC [5, 33]	Antibacterial activity in initial screening, S. pyogenes [5]	MIC ([6]; clinical strain)	MIC ([7]; clinical strain)	MIC [9]	MIC [10]	MBC [11]	MBC [12]	MBC [13]	MBC [14]	MBC [15]	further results
NC(COc1ccc(Cl)cc1)COc1ccc(Cl)cc1 [CPD18]	5.73 ± 0.18 µg/mL	16.4 ± 0.52 µM	17.2 ± 0.26 µM	28.7 µM	10 µg/mL	showed activity	28.7 µM (≈ 8.95 µg/mL)	28.7 µM (≈ 8.95 µg/mL)	28.7 µM	10 µg/mL	showed activity	28.7 µM (≈ 8.95 µg/mL)	28.7 µM (≈ 8.95 µg/mL)	10 µg/mL and 28.7 µM	10 µg/mL and 28.7 µM	> 28.7 µM	> 28.7 µM	> 28.7 µM	> 28.7 µM	> 28.7 µM	CC50 at 48 h [1, 28]: 5.99 ± 0.09 µg/mL; Bactericidal activity against MRSA strains [8]: no bactericidal activity was observed; MBC [16]: > 28.7 µM
NC(COc1cccc2ccccc12)COc1cccc2ccccc12 [CPD20]	2.5 ± 0.75 µg/mL	6.58 ± 1.97 µM	9.98 ± 1.58 µM	6.58 µM	2.5 µg/mL	inhibited the growth	6.58 µM (≈ 2.26 µg/mL)	6.58 µM (≈ 2.26 µg/mL)	6.58 µM	2.5 µg/mL	inhibited the growth	6.58 µM (≈ 2.26 µg/mL)	6.58 µM (≈ 2.26 µg/mL)	2.5 µg/mL and 6.58 µM	2.5 µg/mL to 5 µg/mL and 6.58 µM to 13.2 µM	6.58 µM (≈ 2.26 µg/mL)	6.58 µM (≈ 2.26 µg/mL)	26.3 µM (≈ 9.04 µg/mL)	6.58 µM (≈ 2.26 µg/mL)	26.3 µM (≈ 9.04 µg/mL)	CC50 at 48 h [1, 28]: 3.79 ± 0.6 µg/mL; MIC [17, 34]: 6.58 µM (≈ 2.26 µg/mL); MIC ([18]; — = no activity up to 10 μg/ml): 6.58 µM (≈ 2.26 µg/mL); MIC ([19]; 24 hr, 35°C, — = no activity up to 10 μg/ml, read-out: MIC Enterococcus faecalis ATCC 29213): 13.2 µM; MIC ([19]; read-out: MIC against E. faecalis): 5 µg/mL; Antibacterial activity in initial screening, E. faecalis [19]: inhibited the growth; MBC [20]: 6.58 µM (≈ 2.26 µg/mL); MBC [21]: 13.2 µM (≈ 4.52 µg/mL); MBC [22]: 26.3 µM (≈ 9.04 µg/mL); MBC [16]: 6.58 µM (≈ 2.26 µg/mL)
NC(COc1ccc2ccccc2c1)COc1ccc2ccccc2c1 [CPD21]	5.06 ± 1.13 µg/mL	13.3 ± 2.97 µM	11.3 ± 2.58 µM	26.3 µM	10 µg/mL	showed activity	26.3 µM (≈ 9.04 µg/mL)	26.3 µM (≈ 9.04 µg/mL)	26.3 µM	10 µg/mL	showed activity	26.3 µM (≈ 9.04 µg/mL)	13.2 µM (≈ 4.52 µg/mL)	5 µg/mL to 10 µg/mL and 13.2 µM to 26.3 µM	10 µg/mL and 26.3 µM	26.3 µM (≈ 9.04 µg/mL)	26.3 µM (≈ 9.04 µg/mL)	26.3 µM (≈ 9.04 µg/mL)	26.3 µM (≈ 9.04 µg/mL)	26.3 µM (≈ 9.04 µg/mL)	MIC [17, 34]: 26.3 µM (≈ 9.04 µg/mL); Antibacterial activity in initial screening, E. faecalis [19]: not observed; MBC [20]: 26.3 µM (≈ 9.04 µg/mL); MBC [16]: 13.2 µM (≈ 4.52 µg/mL)
CN[C@H](CC(C)C)C(=O)N[C@H]1C(=O)N[C@@H](CC(N)=O)C(=O)N[C@H]2C(=O)N[C@H]3C(=O)N[C@H](C(=O)N[C@H](C(=O)O)c4cc(O)cc(O)c4-c4cc3ccc4O)[C@H](O)c3ccc(c(Cl)c3)Oc3cc2cc(c3O[C@@H]2O[C@H](CO)[C@@H](O)[C@H](O)[C@H]2O[C@H]2C[C@](C)(N)[C@H](O)[C@H](C)O2)Oc2ccc(cc2Cl)[C@H]1O [Vancomycin, reference compound]	–	–	–	–	–	–	–	–	–	–	–	–	–	–	–	–	–	–	–	–	MIC [3]: 1.38 µM (≈ 2 µg/mL); MIC [17]: 1.38 µM (≈ 2 µg/mL); MIC [18]: 1.38 µM (≈ 2 µg/mL); MIC [4]: 1.38 µM (≈ 2 µg/mL); MIC [6]: 1.38 µM (≈ 2 µg/mL); MIC [7]: 1.38 µM (≈ 2 µg/mL); MIC S. aureus [23]: 0.5 to 2 µg/mL; MIC E. faecalis [24]: 1 to 4 µg/mL; MIC MRSA [25]: 2 µg/mL (≈ 1.38 µM)
